From patent EP4707279A1, “SUBSTITUTED TRICYCLIC HETEROCYCLIC COMPOUND AS PHARMACEUTICAL FOR TREATMENT OR PREVENTION OF COVID-19” (priority 2023, dated 2024)

Assays:
SARS-CoV-2 [1] = experiment: microbe, parasite or virus in culture; format: cell-based; settings: Severe acute respiratory syndrome coronavirus 2, VeroE6-TMPRSS2 cells, read-out: inhibition of CPE
SARS-CoV-2 [2] = experiment: CPE inhibition assay, anti-SARS-CoV-2 virus activity in vitro (Test Example 4); format: cell-based; settings: for inhibition at 10 µM: Severe acute respiratory syndrome coronavirus 2, VeroE6/TMPRSS2, 72 h, read-out: Anti SARS-CoV-2 activity
Caco-2 cells = settings: 48 hours, CellTiter-Glo
Experimental: (§1) To evaluate the cytotoxicity of the selected compound, CellTiter-Glo (registered trademark) Luminescent Cell Viability Assay (Promega Corporation, Madison, WI, USA) was conducted. Briefly, VeroE6-TMPRSS2 or Caco-2 cells (4×10^4 cells/well) were incubated with different concentrations of the compound for 48 hours, and then, the number of cells was measured as the amount of ATP in the cell lysate supernatant using CellTiter-Glo (registered trademark) Luminescent Cell Viability Assay method. The CC50 of the compound was calculated by GraphPad. The repeated test was conducted three times.
(§2) VeroE6 (ATCC CRL-1586 (registered trademark)) and Vero E6-TMPRSS2 (BPS Bioscience Catalog #78081) as well as Caco-2 cells (ATCC HTB-37 (registered trademark)) were purchased as commercial products and they were passaged in Dulbecco's Modified Eagle Medium (DMEM, Gibco, CA, USA) supplemented with 10% heat-inactivated fetal bovine serum (FBS, Gibco, CA, USA), 50 U/mL penicillin, and 50 µg/mL streptomycin. All antibiotics and supplements were purchased from Thermo Fisher Scientific, Inc. (Waltham, MA).

VeroE6-TMPRSS2 cells = settings: 48 hours, CellTiter-Glo
Experimental: as §1, §2

[3] = CPE inhibition at 10 µM, VeroE6-TMPRSS2 cells, MOI 0.01, third day post infection, average of three tests

CCC(CC)COC(=O)[C@H](C)N[P@](=O)(OC[C@H]1O[C@@](C#N)(c2ccc3c(N)ncnn23)[C@H](O)[C@@H]1O)Oc1ccccc1 [Remdesivir]
inhibition at 10 µM (SARS-CoV-2 [1]): ≥ 90%

O=C(NCc1ccc2ccccc2c1)[C@@H]1CC[C@H]2N1C(=O)[C@@H](Cc1ccccc1)N1C(=O)N(Cc3ccccc3)C(=O)N(Cc3ccccc3)[C@]21O [Compound 1D, (6R,9S,11aR,11bR)-1,3,6-Tribenzyl-11b-hydroxy-N-(naphthalen-2-ylmethyl)-2,4,7-trioxo-2H-pyrrolo[2',1':3,4] pyridazine[1,2-a][1,3,5]triazine-9-carboxamide]
Anti SARS-CoV-2 activity (SARS-CoV-2 [2]; 10 µM): A (a CPE inhibition effect of 5% or more)
CC50 (Caco-2 cells): > 400 µM
CC50 (VeroE6-TMPRSS2 cells): 145 µM

CC(C)[C@@H]1C(=O)N2[C@H](C(=O)NCc3ccccc3)CC[C@@H]2[C@@]2(O)N(Cc3ccccc3)C(=O)N(Cc3ccccc3)C(=O)N12 [Compound 3F, (6R,9S,11aR,11bR)-N,1,3-tribenzyl-11b-hydroxy-6-isopropyl-2,4,7-trioxodecahydro-2H-pyrrolo[2',1':3,4]pyrazino[1,2-a][1,3,5]triazine-9-carboxamide]
inhibition at 10 µM (SARS-CoV-2 [2]): > 5%

O=C1[C@H](Cc2ccccc2)N2C(=O)N(Cc3ccccc3)C(=O)N(Cc3ccccc3)C2=C2C[C@@H](OCc3ccccc3)CN12 [Compound 11B, (6S,10R)-1,3,6-Tribenzyl-10-(benzoxy)-1,9,10,11-tetrahydro-2 H-pyrrolo[2',1':3,4]pyridazino [1,2-a][1,3,5]triazine-2,4,7 (3H,6H)-trione]
inhibition at 10 µM (SARS-CoV-2 [2]): > 5%

O=C(NCc1ccc2ccccc2c1)[C@@H]1CCC2=C3N(Cc4ccccc4)C(=O)N(Cc4ccccc4)C(=O)N3[C@H](CC3CCCC3)C(=O)N21 [Compound 8E, (6R,9S)-1,3-Dibenzyl-6-(cyclopentylmethyl)-N-(naphthalen-2-ylmethyl)-2,4,7-trioxo-1,3,4,6,7,9,10,11-octahydro-2H-pyrrolo [2',1':3,4]pyrazino[1,2-a] [1,3,5]triazine-9-carboxamide]
inhibition at 10 µM (SARS-CoV-2 [2]): < 1%

O=C(NCc1ccc2ccccc2c1)[C@@H]1CCC2=C3N(Cc4ccccc4)C(=O)N(Cc4ccccc4)C(=O)N3[C@H](Cc3ccc4ccccc4c3)C(=O)N21 [Compound 7E, (6R,9S)-1,3-Dibenzyl-N,6-Bis(naphthalen-2-ylmethyl) -2,4,7-trioxo-1,3,4,6,7,9,10, 11-octahydro-2H-pyrrolo [2',1':3,4]pyrazino[1,2-a] [1,3,5]triazine-9-carboxamide]
inhibition at 10 µM (SARS-CoV-2 [2]): 1 to 5%

CCOC(=O)[C@@H]1CCC2=C3N(Cc4ccccc4)C(=O)N(Cc4ccccc4)C(=O)N3[C@H](Cc3ccccc3)C(=O)N21 [Compound 1B, Ethyl (6R,9S)-1,3,6-tribenzyl-2,4,7-trioxo-1,3,4,6,7,9,10,11-octahydro-2H-pyrrolo[2',1':3,4]pyridazine[1,2-a][1,3,5]triazine-9-carboxylate]
Anti SARS-CoV-2 activity (SARS-CoV-2 [2]; [3]): C (less than 1%)

Ethyl (6R,9S,11aR)-11b-hydroxy-6-isopropyl-2.4,7-trioxo-1,3-bis(thiophen-2-ylmethyl)decahydro-2H-pyrrolo[2',1':3,4] pyrazino[1,2-a][1,3,5] triazine-9-carboxylate [Compound 27A]
Anti SARS-CoV-2 activity (SARS-CoV-2 [2]; [3]): A (a CPE inhibition effect of 5% or more)
